Converted amounts (≈) assume the structure as drawn.
Tests used:
Test in all cases: ≥ marks a high value that may be exact or a test limit, other limits are often not marked, values filed in µg/mL are converted to µM
[1] = tested on: Aspergillus fumigatus IP1025-70
[2] = tested on: Trichophyton simii IP1063-74
[3] = tested on: Saccharomyces cerevisiae IP118079
[4] = tested on: Aeromonas caviae IP67-16T
[5] = tested on: Aspergillus niger IP218-53
[6] = tested on: Staphylococcus aureus IP76-25
[7] = tested on: Cryptococcus neoformans IP960-67
[8] = tested on: Enterococcus faecalis IP103214
[9] = tested on: Escherichia coli IP76-24
[10] = tested on: Candida albicans IP884-65
[11] = tested on: Nocardia brasiliensis IP16-80
[12] = tested on: Staphylococcus aureus ATCC 25923
[13] = tested on: Pseudomonas aeruginosa CGMCC 1.50
[14] = tested on: Nocardia asteroides
[15] = tested on: Candida glabrata 090902
[16] = tested on: Enterococcus faecalis 981
[17] = tested on: Saccharomyces cerevisiae
[18] = tested on: Cryptococcus neoformans
[19] = tested on: Staphylococcus aureus
[20] = tested on: Salmonella typhimurium
[21] = tested on: Escherichia coli
[22] = tested on: Streptococcus mutans
[23] = tested on: Candida albicans
[24] = tested on: Serratia sp.
[25] = tested on: Pseudomonas putida
[26] = tested on: Bacillus subtilis
[27] = tested on: Klebsiella pneumoniae
[28] = tested on: Shigella dysenteriae
[29] = tested on: Enterococcus faecalis ATCC 29212
[30] = tested on: Pseudomonas aeruginosa ATCC 27853
[31] = tested on: Klebsiella pneumoniae ATCC 700603
[32] = tested on: Candida albicans ATCC 2002
[33] = tested on: Candida parapsilosis ATCC 22019
[34] = tested on: Enterobacter cloacae ATCC 13047
[35] = tested on: Candida albicans ATCC 90028
[36] = tested on: Staphylococcus aureus 37
[37] = tested on: Pseudomonas aeruginosa CMCCB 1010
[38] = tested on: Staphylococcus aureus 10
[39] = tested on: Escherichia coli SC9251
[40] = tested on: Escherichia coli SC9253
[41] = tested on: Escherichia coli IH3080
[42] = tested on: Micrococcus luteus ML36
[43] = tested on: Escherichia coli SC9252
[44] = tested on: Escherichia coli SM101
[45] = tested on: Staphylococcus aureus NBRC 12732
[46] = tested on: Micrococcus luteus NBRC 12708

## CC[C@H](C)[C@H](NC(=O)CNC(=O)[C@H](CCCCN)NC(=O)[C@H](CC(C)C)NC(=O)[C@H](CCSC)NC(=O)[C@H](CC(N)=O)NC(=O)[C@H](CCCCN)NC(=O)[C@H](Cc1c[nH]c2ccccc12)NC(=O)[C@H](CC(C)C)NC(=O)[C@H](C)N)C(=O)NCC(=O)N[C@@H](CCCCN)C(=O)N[C@@H](CC(C)C)C(=O)N[C@@H](C)C(=O)NCC(N)=O [ALWKNMLKGIGKLAG]
[1]
  MIC: 20 µM (≈ 32 µg/mL)
[2]
  MIC: 30 µM (≈ 48 µg/mL)
[3]
  MIC: 10 µM (≈ 16 µg/mL)
[4]
  MIC: 3 µM (≈ 4.8 µg/mL)
[5]
  MIC: ≥ 40 µM
[6]
  MIC: ≥ 150 µM
[7]
  MIC: 3 µM (≈ 4.8 µg/mL)
[8]
  MIC: 3 µM (≈ 4.8 µg/mL)
[9]
  MIC: 3 µM (≈ 4.8 µg/mL)
[10]
  MIC: 20 µM (≈ 32 µg/mL)
[11]
  MIC: ≥ 150 µM

## CC[C@H](C)[C@H](NC(=O)[C@H](CC(C)C)NC(=O)CNC(=O)[C@@H](NC(=O)[C@@H](NC(=O)[C@@H](N)Cc1ccccc1)[C@@H](C)CC)[C@@H](C)O)C(=O)NCC(=O)NCC(=O)N[C@@H](CC(C)C)C(=O)N[C@@H](CCSC)C(=O)N[C@@H](CCCCN)C(=O)N[C@@H](C)C(=O)N[C@@H](CC(C)C)C(N)=O [FITGLIGGLMKAL]
[12]
  MIC: 100 µM (≈ 133 µg/mL)
[13]
  MIC: ≥ 400 µM
[14]
  MIC: ≥ 100 µM
[15]
  MIC: ≥ 400 µM
[16]
  MIC: ≥ 200 µM

## CC(C)C[C@H](NC(=O)[C@H](CCCN=C(N)N)NC(=O)[C@H](C)NC(=O)[C@H](CCCN=C(N)N)NC(=O)[C@H](CC(C)C)NC(=O)[C@H](CO)NC(=O)[C@H](CCC(=O)O)NC(=O)CNC(=O)[C@H](CCCCN)NC(=O)[C@H](CC(C)C)NC(=O)[C@H](CCCN=C(N)N)NC(=O)[C@H](CO)NC(=O)[C@@H](NC(=O)[C@H](CCCCN)NC(=O)[C@@H](NC(=O)[C@@H](NC(=O)CN)C(C)C)C(C)C)C(C)C)C(=O)O [GVVKVSRLKGESLRARL]
[17]
  MIC: 3.21 µM (≈ 6 µg/mL)
[18]
  MIC: 3.21 µM (≈ 6 µg/mL)
[19]
  MIC: 10.7 µM (≈ 20 µg/mL)
[20]
  MIC: 5.35 µM (≈ 10 µg/mL)
[21]
  MIC: 5.35 µM (≈ 10 µg/mL)
[22]
  MIC: 3.21 µM (≈ 6 µg/mL)
[23]
  MIC: 5.35 µM (≈ 10 µg/mL)
[24]
  MIC: 10.7 µM (≈ 20 µg/mL)
[25]
  MIC: 5.35 µM (≈ 10 µg/mL)
[26]
  MIC: 3.21 µM (≈ 6 µg/mL)

## CC[C@H](C)[C@H](N)C(=O)N[C@@H](CC(N)=O)C(=O)N[C@@H](CC(C)C)C(=O)N[C@@H](CCCCN)C(=O)N[C@@H](C)C(=O)N[C@H](C(=O)N[C@H](C(=O)N[C@@H](C)C(=O)N[C@@H](CC(C)C)C(=O)N[C@@H](C)C(=O)N[C@@H](CCCCN)C(=O)N[C@@H](CCCCN)C(=O)N[C@@H](CC(C)C)C(=O)N[C@@H](CC(C)C)C(=O)O)[C@@H](C)O)[C@@H](C)CC [INLKAITALAKKLL]
[27]
  MIC: 13.2 µM (≈ 20 µg/mL)
[12]
  MIC: 6.62 µM (≈ 10 µg/mL)
[28]
  MIC: 6.62 µM (≈ 10 µg/mL)
[29]
  MIC: 3.31 µM (≈ 5 µg/mL)
[30]
  MIC: 53 µM (≈ 80 µg/mL)
[31]
  MIC: 26.5 µM (≈ 40 µg/mL)
[32]
  MIC: 3.31 µM (≈ 5 µg/mL)
[33]
  MIC: 1.66 µM (≈ 2.5 µg/mL)
[34]
  MIC: 3.31 µM (≈ 5 µg/mL)
[35]
  MIC: 6.62 µM (≈ 10 µg/mL)
[36]
  MIC: 3.31 µM (≈ 5 µg/mL)
[37]
  MIC: 6.62 µM (≈ 10 µg/mL)
[38]
  MIC: 1.66 µM (≈ 2.5 µg/mL)

## NCCCC[C@H](NC(=O)[C@H](Cc1ccccc1)NC(=O)[C@H](Cc1ccccc1)NC(=O)[C@H](CCCCN)NC(=O)[C@H](Cc1ccccc1)NC(=O)[C@H](Cc1ccccc1)NC(=O)[C@@H](N)CCCCN)C(=O)N[C@@H](Cc1ccccc1)C(=O)N[C@@H](Cc1ccccc1)C(=O)O [KFFKFFKFF]
[39]
  MIC: 23.3 µM (≈ 30 µg/mL)
[40]
  MIC: 23.3 µM (≈ 30 µg/mL)
[41]
  MIC: ≥ 77.8 µM
[42]
  MIC: 7.78 µM (≈ 10 µg/mL)
[43]
  MIC: 23.3 µM (≈ 30 µg/mL)
[44]
  MIC: 23.3 µM (≈ 30 µg/mL)

## CC[C@H](C)[C@@H]1NC(=O)[C@H](C)NC(=O)[C@H](CC(C)C)NC(=O)[C@@H]2CSSC[C@@H](C(=O)N[C@@H](CCCN=C(N)N)C(=O)N[C@@H](CCCN=C(N)N)C(=O)O)NC(=O)[C@H](C(C)C)NC(=O)[C@@H]3CSSC[C@H](NC(=O)[C@H](CC(C)C)NC(=O)[C@H](CO)NC(=O)[C@H](Cc4cnc[nH]4)NC(=O)[C@H](CC(N)=O)NC(=O)[C@H](C)NC(=O)[C@H](C)NC(=O)[C@H](Cc4ccccc4)NC(=O)CNC(=O)[C@H](CCCCN)NC(=O)[C@H](C)NC(=O)[C@H](CCC(=O)O)NC(=O)[C@H](Cc4ccccc4)NC(=O)[C@H](CO)NC(=O)[C@H](CC(C)C)NC(=O)[C@H](CC(C)C)NC(=O)[C@H](CC(=O)O)NC(=O)[C@@H](NC(=O)[C@@H](NC(=O)[C@@H](N)CC(C)C)[C@@H](C)O)CSSC[C@H](NC(=O)[C@H](C)NC(=O)CNC(=O)CNC(=O)[C@H](CCCCN)NC(=O)[C@H](CCCN=C(N)N)NC(=O)CNC1=O)C(=O)N[C@@H](CCC(N)=O)C(=O)N[C@@H](CC(N)=O)C(=O)NCC(=O)N[C@@H](C(C)C)C(=O)N3)C(=O)N[C@@H](C)C(=O)N[C@@H](C)C(=O)N[C@@H](Cc1cnc[nH]1)C(=O)N2 [LTCDLLSFEAKGFAANHSLCAAHCLAIGRKGGACQNGVCVCRR]
[45]
  MIC: 0.112 µM
[46]
  MIC: 1.12 µM

— DBAASP
